This data set deals with Human mesnchymal stem cells. The experiment in a line: Alamar Blue toxicity assay in perfused microbioreactor culture. The data set is classed as cell-based. As to conditions: 250 ng/ml, read at day 3 and day 7, FIG. 3. As for the experimental part:
Human mesnchymal stem cells were suspended in the α Modified Eagle's Medium (MEM) at the cell density of 10^4/ml. A 50 μl of cell suspension was introduced to each of the microbioreactors and kept at 37° C. After 4 h, the cell was seen to attach to the surface of the microbioreactor under microscope. During culture, αMEM supplemented with 15% FBS, 2% antibiotics/antimycotics and with different concentrations of tested drugs was used. The chemicals used were Trimethoprim and Pyrimethamine, which are known to be toxic to cells. The concentrations of the drug were 100 ng/ml and 250 ng/ml. The flow rate was 0.025 ml/h. Alamar Blue was used to do toxicity assay, which simply indicates the cell metabolity.
The samples from 3 days of culture with drug, 7 days of culture with drug and 3 days of culture without drug and further 4 days culture with drug were incubated with culture medium supplemented with Alamar Blue at day 3 and day 7, respectively for 4 h. Then 100 μl of culture medium was transferred to 96-well plate to read using microplate reader at the excitation wavelength of 530 nm and emission wavelength of 590 nm. Toxicity was shown as the ratio of reading from untreated with drug and from treated with drug, see FIG. 3. The toxicity was increased with culture time with drug. No significant different in toxicity between the two concentrations of drug in the test.
On the technique in general: The colour change of resazurin is a common sign of viable cells or microbes.

This note sets out measurements from US20070207537A1, “Bioreactor” (priority 2004, published 2007).

As to `CCc1nc(N)nc(N)c1-c1ccc(Cl)cc1` [Pyrimethamine], the “Toxicity (ratio of reading from untreated with drug and from treated with drug)” value is recorded as “dramatic increase in toxicity”.
